According to US20230089867A1, “CYCLIC PENTAMER COMPOUNDS AS PROPROTEIN CONVERTASE SUBTILISIN/KEXIN TYPE 9 (PCSK9) INHIBITORS FOR THE TREATMENT OF METABOLIC DISORDER” (Novartis AG, priority 2018, published 2023):

Target: human PCSK9 (Homo sapiens, UniProt Q8NBP7)
Experiment: PCSK9 ligand binding TR-FRET assay (interference with binding of human PCSK9 to human LDLR)
Settings: for Max % inhibition: PCSK9 FRET assay, efficacy (Amax), 100% = 1 uM unlabeled human PCSK9, 0% = DMSO; for IC50: TR-FRET, human PCSK9 Alexa Fluor 647 / human LDLR extracellular domain-Europium Kryptate, read-out: PCSK9 FRET Assay IC50
Procedure, shortened: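 Threefold compound dilutions were pre-incubated 30 min with PCSK9, after which 4 nM Europium Kryptate-tagged human LDLR ectodomain was added for a further 2 h.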

Chain of human PCSK9 (Q8NBP7 153-692): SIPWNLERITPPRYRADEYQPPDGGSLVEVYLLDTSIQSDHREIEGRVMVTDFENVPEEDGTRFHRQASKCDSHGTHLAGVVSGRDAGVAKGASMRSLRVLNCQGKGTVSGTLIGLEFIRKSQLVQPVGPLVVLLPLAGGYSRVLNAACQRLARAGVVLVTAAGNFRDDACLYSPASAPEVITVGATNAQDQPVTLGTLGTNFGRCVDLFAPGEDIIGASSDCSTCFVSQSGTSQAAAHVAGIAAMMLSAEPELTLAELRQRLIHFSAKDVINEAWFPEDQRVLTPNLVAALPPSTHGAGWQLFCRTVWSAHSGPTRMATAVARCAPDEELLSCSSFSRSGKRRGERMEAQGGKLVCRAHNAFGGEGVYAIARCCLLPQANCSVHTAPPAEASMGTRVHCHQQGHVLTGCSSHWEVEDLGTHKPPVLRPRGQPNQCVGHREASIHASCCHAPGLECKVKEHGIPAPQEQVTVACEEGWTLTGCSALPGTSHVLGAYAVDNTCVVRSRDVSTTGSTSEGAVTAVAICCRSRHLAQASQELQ
Chain of human PCSK9 (Q8NBP7 31-152 partner limits assumed): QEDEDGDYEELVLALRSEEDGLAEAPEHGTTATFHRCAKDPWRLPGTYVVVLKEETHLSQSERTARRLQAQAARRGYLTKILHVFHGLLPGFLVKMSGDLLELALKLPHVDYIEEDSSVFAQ

Row | SMILES | Max % inhibition [%] | IC50 [nM]
1 | COC[C@@H]1NC(=O)[C@H](CCCCN(C)C)N(Cc2ccc(Cl)cc2Oc2ccc(-c3cnc(CN(C)C)n3C)cc2)C(=O)C[C@@H](Cc2ccccc2)C(=O)N(C)[C@@H](C)CNC(=O)C[C@H](Cc2ccc(Cl)cc2)N(C)C1=O [Compound 225, (2S,5S,8S,13S,16R)-16-benzyl-1-(4-chloro-2-(4-(2-((dimethylamino)methyl)-1-methyl-1H-imidazol-5-yl)phenoxy)benzyl)-8-(4-chlorobenzyl)-2-(4-(dimethylamino)butyl)-5-(methoxymethyl)-7,13,14-trimethyl-1,4,7,11,14-pentaazacyclooctadecane-3,6,10,15,18-pentaone] | 98.86 | 8
2 | COC[C@@H]1NC(=O)[C@H](C)N(Cc2ccc(Cl)cc2Oc2ccc(-c3cnc(CN(C)C)n3C)cc2)C(=O)CC(Cn2ccccc2=O)C(=O)N(C)[C@H]2CCCC[C@@H]2NC(=O)C[C@H](Cc2ccc(Cl)cc2)N(C)C1=O (stereo partly drawn) [Compound 275, (4S,7S,10S,16aS,20aS)-11-(4-chloro-2-(4-(2-((dimethylamino)methyl)-1-methyl-1H-imidazol-5-yl)phenoxy)benzyl)-4-(4-chlorobenzyl)-7-(methoxymethyl)-5,10,16-trimethyl-14-((2-oxopyridin-1(2H)-yl)methyl)hexadecahydrobenzo[l][1,4,7,11,14]pentaazacyclooctadecine-2,6,9,12,15(3H)-pentaone] | 102.47 | 0.8
3 | COC[C@@H]1NC(=O)[C@H](C)N(Cc2ccc(Cl)cc2Oc2ccc(-c3cnc4c(c3)CN(C(=O)[C@H]3CCNC3)CC4)cc2)C(=O)C[C@@H](Cc2ccccc2)C(=O)N(C)[C@@H](C)CNC(=O)C[C@H](Cc2ccc(Cl)cc2)N(C)C1=O [Compound 176, (2S,5S,8S,13S,16R)-16-benzyl-1-(4-chloro-2-(4-(6-((S)-pyrrolidine-3-carbonyl)-5,6,7,8-tetrahydro-1,6-naphthyridin-3-yl)phenoxy)benzyl)-8-(4-chlorobenzyl)-5-(methoxymethyl)-2,7,13,14-tetramethyl-1,4,7,11,14-pentaazacyclooctadecane-3,6,10,15,18-pentaone] | 70.99 | 4.3
4 | C[C@H]1CNC(=O)C[C@H](Cc2ccc(Cl)cc2)N(C)C(=O)[C@H](CCC(=O)O)NC(=O)[C@H](C)N(Cc2ccc(Cl)cc2Oc2ccc(-c3cnc(CN(C)C)n3C)cc2)C(=O)C[C@@H](Cc2ccccc2)C(=O)N1C [Compound 233, 3-((2S,5S,8S,13S,16R)-16-benzyl-1-(4-chloro-2-(4-(2-((dimethylamino)methyl)-1-methyl-1H-imidazol-5-yl)phenoxy)benzyl)-8-(4-chlorobenzyl)-2,7,13,14-tetramethyl-3,6,10,15,18-pentaoxo-1,4,7,11,14-pentaazacyclooctadecan-5-yl)propanoic acid] | 90.08 | 705
5 | COC[C@@H]1NC(=O)[C@H](C)N(Cc2ccc(Cl)cc2Oc2ccc(-c3cnc(CN(C)C)n3C)cc2)C(=O)C[C@@H](Cc2cccnc2)C(=O)N(C)[C@H]2CCCC[C@@H]2NC(=O)C[C@H](Cc2ccc(Cl)cc2)N(C)C1=O [Compound 280, (4S,7S,10S,14R,16aS,20aS)-11-(4-chloro-2-(4-(2-((dimethylamino)methyl)-1-methyl-1H-imidazol-5-yl)phenoxy)benzyl)-4-(4-chlorobenzyl)-7-(methoxymethyl)-5,10,16-trimethyl-14-(pyridin-3-ylmethyl)hexadecahydrobenzo[l][1,4,7,11,14]pentaazacyclooctadecine-2,6,9,12,15(3H)-pentaone] | 100.09 | 0.6
6 | COC[C@@H]1NC(=O)[C@H](C)N(Cc2ccc(Cl)cc2Oc2ccc(-c3cnc(CN(C)C)n3C)cc2)C(=O)C[C@@H](Cc2ccccc2)C(=O)N(C)C2CCOCC2NC(=O)CC(Cc2ccc(Cl)cc2)N(C)C1=O (stereo partly drawn) [Compound 61, (4S,7S,10S,14R)-14-benzyl-11-(4-chloro-2-(4-(2-((dimethylamino)methyl)-1-methyl-1H-imidazol-5-yl)phenoxy)benzyl)-4-(4-chlorobenzyl)-7-(methoxymethyl)-5,10,16-trimethyltetradecahydro-1H-pyrano[3,4-1][1,4,7,11,14]pentaazacyclooctadecine-2,6,9,12,15(3H)-pentaone] | 99.31 | 1.4
7 | COC[C@@H]1NC(=O)[C@H](C)N(Cc2ccc(Cl)cc2Oc2ccc(-c3cnc(C(C)O)n3C)cc2)C(=O)C[C@@H](Cc2ccccc2)C(=O)N(C)[C@H]2CCCC[C@@H]2NC(=O)C[C@H](Cc2ccc(Cl)cc2)N(C)C1=O (stereo partly drawn) [Compound 242, (4S,7S,10S,14R,16aS,20aS)-14-benzyl-11-(4-chloro-2-(4-(2-(1-hydroxyethyl)-1-methyl-1H-imidazol-5-yl)phenoxy)benzyl)-4-(4-chlorobenzyl)-7-(methoxymethyl)-5,10,16-trimethylhexadecahydrobenzo[l][1,4,7,11,14]pentaazacyclooctadecine-2,6,9,12,15(3H)-pentaone] | 87.34 | 1.3
8 | COC[C@@H]1NC(=O)[C@H](C)N(Cc2ccc(Cl)cc2Oc2ccc(-c3cnc(CN(C)C)n3C)cc2)C(=O)C[C@@H](Cc2ccc(F)c(F)c2F)C(=O)N(C)[C@@H](C)CNC(=O)C[C@H](Cc2ccc(Cl)cc2)N(C)C1=O [Compound 33, (2S,5S,8S,13S,16R)-1-(4-chloro-2-(4-(2-((dimethylamino)methyl)-1-methyl-1H-imidazol-5-yl)phenoxy)benzyl)-8-(4-chlorobenzyl)-5-(methoxymethyl)-2,7,13,14-tetramethyl-16-(2,3,4-trifluorobenzyl)-1,4,7,11,14-pentaazacyclooctadecane-3,6,10,15,18-pentaone] | 95.65 | 1.3
9 | COC[C@@H]1NC(=O)[C@H](C)N(Cc2ccc(Cl)cc2Oc2ccc(-c3nnc4n3CCN(C(=O)[C@H]3CCNC3)C4)cc2)C(=O)C[C@@H](Cc2ccccc2)C(=O)N(C)[C@@H](C)CNC(=O)C[C@H](Cc2ccc(Cl)cc2)N(C)C1=O [Compound 131, (2S,5S,8S,13S,16R)-16-benzyl-1-(4-chloro-2-(4-(7-((S)-pyrrolidine-3-carbonyl)-5,6,7,8-tetrahydro-[1,2,4]triazolo[4,3-a]pyrazin-3-yl)phenoxy)benzyl)-8-(4-chlorobenzyl)-5-(methoxymethyl)-2,7,13,14-tetramethyl-1,4,7,11,14-pentaazacyclooctadecane-3,6,10,15,18-pentaone] | 90.72 | 9.9
10 | C[C@H]1CNC(=O)C[C@H](Cc2ccc(Cl)cc2)N(C)C(=O)[C@H](CO)NC(=O)[C@H](C)N(Cc2ccc(Cl)cc2Oc2ccc3c(c2)C(=O)N(C2CCNCC2)C3)C(=O)C[C@@H](Cc2ccccc2)C(=O)N1C [Compound 125, (2S,5S,8S,13S,16R)-16-benzyl-1-(4-chloro-2-((3-oxo-2-(piperidin-4-yl)isoindolin-5-yl)oxy)benzyl)-8-(4-chlorobenzyl)-5-(hydroxymethyl)-2,7,13,14-tetramethyl-1,4,7,11,14-pentaazacyclooctadecane-3,6,10,15,18-pentaone] | 60.93 | 28
11 | COC[C@@H]1NC(=O)[C@H](C)N(Cc2ccc(Cl)cc2Oc2ccc(-c3cnc(CN(C)C)n3C)cn2)C(=O)C[C@@H](Cc2ccccc2)C(=O)N(C)[C@H]2CCCC[C@@H]2NC(=O)C[C@H](Cc2ccc(Cl)cc2)N(C)C1=O [Compound 273, (4S,7S,10S,14R,16aS,20aS)-14-benzyl-11-(4-chloro-2-((5-(2-((dimethylamino)methyl)-1-methyl-1H-imidazol-5-yl)pyridin-2-yl)oxy)benzyl)-4-(4-chlorobenzyl)-7-(methoxymethyl)-5,10,16-trimethylhexadecahydrobenzo[l][1,4,7,11,14]pentaazacyclooctadecine-2,6,9,12,15(3H)-pentaone] | 105.53 | 3
12 | COC[C@@H]1NC(=O)[C@H](C)N(Cc2ccc(Cl)cc2Oc2ccc(-c3cnc(CN(C)C)n3C)cc2)C(=O)C[C@@H](CC2CC2)C(=O)N(C)[C@H]2CCCC[C@@H]2NC(=O)C[C@H](Cc2ccc(Cl)cc2)N(C)C1=O [Compound 290, (4S,7S,10S,14R,16aS,20aS)-11-(4-chloro-2-(4-(2-((dimethylamino)methyl)-1-methyl-1H-imidazol-5-yl)phenoxy)benzyl)-4-(4-chlorobenzyl)-14-(cyclopropylmethyl)-7-(methoxymethyl)-5,10,16-trimethylhexadecahydrobenzo[l][1,4,7,11,14]pentaazacyclooctadecine-2,6,9,12,15(3H)-pentaone] | 79.21 | 3.6
13 | COC[C@@H]1NC(=O)[C@H](C)N(Cc2ncccc2Oc2ccc(-c3cnc(CN(C)C)n3C)cc2)C(=O)C[C@@H](Cc2ccccc2)C(=O)N(C)[C@@H](C)CNC(=O)C[C@H](Cc2ccc(Cl)cc2)N(C)C1=O [Compound 214, (2S,5S,8S,13S,16R)-16-benzyl-8-(4-chlorobenzyl)-1-((3-(4-(2-((dimethylamino)methyl)-1-methyl-1H-imidazol-5-yl)phenoxy)pyridin-2-yl)methyl)-5-(methoxymethyl)-2,7,13,14-tetramethyl-1,4,7,11,14-pentaazacyclooctadecane-3,6,10,15,18-pentaone] | 97.43 | 33.2
14 | COC[C@@H]1NC(=O)[C@H](CCCN2CCOCC2)N(Cc2ccc(Cl)cc2Oc2ccc(-c3cnc(CN(C)C)n3C)cc2)C(=O)C[C@@H](Cc2ccccc2)C(=O)N(C)[C@H]2CCCC[C@@H]2NC(=O)C[C@H](Cc2ccc(Cl)cc2)N(C)C1=O [Compound 272, (4S,7S,10S,14R,16aS,20aS)-14-benzyl-11-(4-chloro-2-(4-(2-((dimethylamino)methyl)-1-methyl-1H-imidazol-5-yl)phenoxy)benzyl)-4-(4-chlorobenzyl)-7-(methoxymethyl)-5,16-dimethyl-10-(3-morpholinopropyl)hexadecahydrobenzo[l][1,4,7,11,14]pentaazacyclooctadecine-2,6,9,12,15(3H)-pentaone] | 98.30 | 1.2
